Assay results taken from publication PMC4718913, “Characterization of a novel oxidase from Thelonectria discophora SANK 18292 involved in nectrisine biosynthesis” (AMB Express, 2016).

Tests used:
NecC [1] = molecular target: T1, NecC (Thelonectria discophora, UniProt A0A0S3Q283); experiment: LC-MS of nectrisine formed (NaBH4 reduction, NBD-F label); type: biochemical; set-up: full-length cDNA in pET21b, C-terminal His tag, E. coli BL21 (DE3), Ni column; about 62 kDa; conditions: 15 °C, 12.5 h
T1 sequence (A0A0S3Q283 1-558): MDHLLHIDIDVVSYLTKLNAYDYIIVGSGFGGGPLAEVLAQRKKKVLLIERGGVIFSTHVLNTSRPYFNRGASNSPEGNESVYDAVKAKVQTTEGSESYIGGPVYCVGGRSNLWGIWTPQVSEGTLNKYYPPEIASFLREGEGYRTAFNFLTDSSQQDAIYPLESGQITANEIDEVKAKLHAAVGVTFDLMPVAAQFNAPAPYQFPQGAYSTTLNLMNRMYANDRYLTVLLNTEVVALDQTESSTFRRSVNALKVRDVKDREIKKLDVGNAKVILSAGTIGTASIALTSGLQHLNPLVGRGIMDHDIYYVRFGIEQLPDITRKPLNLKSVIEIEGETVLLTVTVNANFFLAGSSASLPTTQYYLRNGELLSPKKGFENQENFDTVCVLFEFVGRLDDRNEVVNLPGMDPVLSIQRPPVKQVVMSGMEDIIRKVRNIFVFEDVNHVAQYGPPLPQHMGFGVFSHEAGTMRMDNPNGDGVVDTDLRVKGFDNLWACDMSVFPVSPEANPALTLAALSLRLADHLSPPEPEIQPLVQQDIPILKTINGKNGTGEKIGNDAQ

NecC [2] = molecular target: T1, NecC; experiment: H2O2 production, ABTS/peroxidase coupled, absorbance at […] nm; type: biochemical; set-up: native, purified from mycelium (ammonium sulfate, DEAE); FAD-like flavin; homo-oligomers about 8 mer to 16 mer; conditions: pH 7.0, 30 °C

| SMILES | LC-MS of nectrisine formed (NaBH4 reduction, NBD-F label) (NecC [1]) | H2O2 production, ABTS/peroxidase coupled, absorbance at 420 nm (NecC [2]; 1 mM substrate, O2 as acceptor) | H2O2 production, ABTS/peroxidase coupled, absorbance at 420 nm (NecC [2]; xylitol in place of 4-amino-4-deoxyarabinitol) |
| --- | --- | --- | --- |
| N[C@H](CO)[C@@H](O)[C@H](O)CO [compound 2, 4-amino-4-deoxyarabinitol] | the recombinant NecC had 4-amino-4-deoxyarabinitol oxidase activity | 4-amino-4-deoxyarabinitol was the preferred substrate | – |
| OC[C@@H](O)[C@H](O)[C@@H](O)CO [xylitol] | – | – | NecC also exhibited activity against some sugar alcohols |
